For the assay, the system named is MV-4-11 cells. As to the kind of experiment: Gene expression microarray analysis (Affymetrix PrimeView) and GSEA. In kind it is cell-based, human. To be noted: ProbeSet 11749477_a_at; LIST B. On the set-up: RFU PODN (11730768_x_at) / Fold change /veh PODN (11730768_x_at) / RFU LINC00158 (11744669_a_at) / Fold change /veh LINC00158 (11744669_a_at) / RFU DUSP10 (11751237_a_at) / Fold change /veh DUSP10 (11751237_a_at) / RFU ID3 (11757404_x_at) / Fold change /veh ID3 (11757404_x_at) / RFU PLEKHG5 (11737974_s_at) / Fold change /veh PLEKHG5 (11737974_s_at) / RFU LRRC4B (11730491_at) / Fold change /veh LRRC4B (11730491_at) / RFU GIMAP4 (11747438_a_at) / Fold change /veh GIMAP4 (11747438_a_at) / RFU KRT8 (11758183_x_at) / Fold change /veh KRT8 (11758183_x_at) / RFU CNN1 (11734310_a_at) / Fold change /veh CNN1 (11734310_a_at) / RFU VPS37D (11726825_at) / Fold change /veh VPS37D (11726825_at) / RFU C10orf10 (11716522_x_at) / Fold change /veh C10orf10 (11716522_x_at) / RFU KIR2DL2 /// KIR2DL4 /// KIR2DL5A /// KIR2DL5B /// KIR2DS1 /// KIR2DS2 /// KIR2DS3 /// KIR2DS4 /// KIR3DL3 /// KIR3DL3 /// KIR3DS1 (11738374_at) / Fold change /veh KIR2DL2 /// KIR2DL4 /// KIR2DL5A /// KIR2DL5B /// KIR2DS1 /// KIR2DS2 /// KIR2DS3 /// KIR2DS4 /// KIR3DL3 /// KIR3DL3 /// KIR3DS1 (11738374_at) / RFU C1QL1 (11718748_at) / Fold change /veh C1QL1 (11718748_at) / RFU TMPRSS4 (11747572_a_at) / Fold change /veh TMPRSS4 (11747572_a_at) / RFU HAMP (11756126_x_at) / Fold change /veh HAMP (11756126_x_at) / RFU RNFT2 (11725882_a_at) / Fold change /veh RNFT2 (11725882_a_at) / RFU NR4A2 (11747474_a_at) / Fold change /veh NR4A2 (11747474_a_at) / RFU ABCC12 (11746883_a_at) / Fold change /veh ABCC12 (11746883_a_at) / RFU TMEM136 (11760407_x_at) / Fold change /veh TMEM136 (11760407_x_at) / RFU CLDN22 /// WWC2 (11732394_at) / Fold change /veh CLDN22 /// WWC2 (11732394_at) / RFU HLA-DPB1 (11760878_x_at) / Fold change /veh HLA-DPB1 (11760878_x_at) / RFU SPINT1 (11716480_a_at) / Fold change /veh SPINT1 (11716480_a_at) / RFU GAP43 (11754022_s_at) / Fold change /veh GAP43 (11754022_s_at) / RFU A4GNT (11735810_at) / Fold change /veh A4GNT (11735810_at) / RFU PRB3 (11715151_x_at) / Fold change /veh PRB3 (11715151_x_at) / RFU TUBB4B (11761932_at) / Fold change /veh TUBB4B (11761932_at) / RFU CAPN14 (11732068_a_at) / Fold change /veh CAPN14 (11732068_a_at) / RFU TMCC2 (11721928_a_at) / Fold change /veh TMCC2 (11721928_a_at) / RFU IRGQ (11745062_a_at) / Fold change /veh IRGQ (11745062_a_at) / RFU FAM174B (11720279_a_at) / Fold change /veh FAM174B (11720279_a_at) / RFU TMPRSS4 (11748680_a_at) / Fold change /veh TMPRSS4 (11748680_a_at) / RFU FAM212B (11763350_a_at) / Fold change /veh FAM212B (11763350_a_at) / RFU PLEKHG5 (11743358_a_at) / Fold change /veh PLEKHG5 (11743358_a_at) / RFU ZSCAN30 (11745921_a_at) / Fold change /veh ZSCAN30 (11745921_a_at) / RFU CMKLR1 (11741424_a_at) / Fold change /veh CMKLR1 (11741424_a_at) / RFU LOC101060620 /// MAPK8IP1 (11723275_at) / Fold change /veh LOC101060620 /// MAPK8IP1 (11723275_at) / RFU SPTSSB (11747773_x_at) / Fold change /veh SPTSSB (11747773_x_at) / RFU PRSS12 (11739890_at) / Fold change /veh PRSS12 (11739890_at) / RFU BIN1 (11741810_x_at) / Fold change /veh BIN1 (11741810_x_at) / RFU WNT11 (11732464_a_at) / Fold change /veh WNT11 (11732464_a_at) / RFU C10orf10 (11716521_a_at) / Fold change /veh C10orf10 (11716521_a_at) / RFU C5orf56 (11738089_at) / Fold change /veh C5orf56 (11738089_at) / RFU CYB561 (11721691_x_at) / Fold change /veh CYB561 (11721691_x_at) / RFU ANKRD19P (11752326_a_at) / Fold change /veh ANKRD19P (11752326_a_at) / RFU OR2T12 /// OR2T33 /// OR2T8 (11738714_s_at) / Fold change /veh OR2T12 /// OR2T33 /// OR2T8 (11738714_s_at) / RFU VCAN (11748164_a_at) / Fold change /veh VCAN (11748164_a_at) / RFU JSRP1 (11732532_at) / Fold change /veh JSRP1 (11732532_at) / RFU KRTAP10-11 (11738290_x_at) / Fold change /veh KRTAP10-11 (11738290_x_at) / RFU MYO3A (11730013_a_at) / Fold change /veh MYO3A (11730013_a_at) / RFU EBF3 (11725865_a_at) / Fold change /veh EBF3 (11725865_a_at) / RFU CAMK2N1 (11719241_x_at) / Fold change /veh CAMK2N1 (11719241_x_at) / RFU C5orf56 (11738088_a_at) / Fold change /veh C5orf56 (11738088_a_at) / RFU OLFML3 (11715873_a_at) / Fold change /veh OLFML3 (11715873_a_at) / RFU LOC100653217 /// NTM (11731650_a_at) / Fold change /veh LOC100653217 /// NTM (11731650_a_at) / RFU MAPK11 (11762145_a_at) / Fold change /veh MAPK11 (11762145_a_at) / RFU FIZ1 (11724087_x_at) / Fold change /veh FIZ1 (11724087_x_at) / RFU OASL (11726364_x_at) / Fold change /veh OASL (11726364_x_at) / RFU SOX15 (11748057_x_at) / Fold change /veh SOX15 (11748057_x_at) / RFU CD79A (11719716_a_at) / Fold change /veh CD79A (11719716_a_at) / RFU HIST1H1D (11736915_at) / Fold change /veh HIST1H1D (11736915_at) / RFU CASKIN2 (11723855_a_at) / Fold change /veh CASKIN2 (11723855_a_at) / RFU LOC730098 (11760151_x_at) / Fold change /veh LOC730098 (11760151_x_at) / RFU OR4N2 (11742367_at) / Fold change /veh OR4N2 (11742367_at) / RFU PRRT2 (11749266_a_at) / Fold change /veh PRRT2 (11749266_a_at) / RFU SNX32 (11753110_a_at) / Fold change /veh SNX32 (11753110_a_at) / RFU CDHR5 (11726645_a_at) / Fold change /veh CDHR5 (11726645_a_at) / RFU RCAN1 (11760418_a_at) / Fold change /veh RCAN1 (11760418_a_at) / RFU FAM167A (11723789_a_at) / Fold change /veh FAM167A (11723789_a_at) / RFU FAM26E (11764081_at) / Fold change /veh FAM26E (11764081_at) / RFU ISYNA1 (11749810_s_at) / Fold change /veh ISYNA1 (11749810_s_at) / RFU ACY1 (11761880_at) / Fold change /veh ACY1 (11761880_at) / RFU 11764098_at / Fold change /veh 11764098_at / RFU SAMD14 (11745864_x_at) / Fold change /veh SAMD14 (11745864_x_at) / RFU NPB (11741838_a_at) / Fold change /veh NPB (11741838_a_at) / RFU TMPRSS6 (11731388_a_at) / Fold change /veh TMPRSS6 (11731388_a_at) / RFU KRTAP10-2 (11738614_at) / Fold change /veh KRTAP10-2 (11738614_at) / RFU ARHGAP8 /// PRR5-ARHGAP8 (11727945_x_at) / Fold change /veh ARHGAP8 /// PRR5-ARHGAP8 (11727945_x_at) / RFU KRTAP5-7 /// NADSYN1 (11734609_at) / Fold change /veh KRTAP5-7 /// NADSYN1 (11734609_at) / RFU RASL12 (11751679_a_at) / Fold change /veh RASL12 (11751679_a_at) / RFU CDKN2B (11736163_a_at) / Fold change /veh CDKN2B (11736163_a_at) / RFU PRF1 (11729649_at) / Fold change /veh PRF1 (11729649_at) / RFU, ZNF638 /// ZNF638-IT1 / Fold change vs veh, ZNF638 /// ZNF638-IT1 / RFU, PANK3 / Fold change vs veh, PANK3 / RFU, SH3YL1 / Fold change vs veh, SH3YL1 / RFU, ZEB2 / Fold change vs veh, ZEB2 / RFU, NRIP1 / Fold change vs veh, NRIP1 / RFU, PTTG1IP / Fold change vs veh, PTTG1IP / RFU, CAPN2 / Fold change vs veh, CAPN2 / RFU, MED14 / Fold change vs veh, MED14 / RFU, SNORA58 / Fold change vs veh, SNORA58 / RFU, C1orf63 / Fold change vs veh, C1orf63 / RFU, LRRFIP1 / Fold change vs veh, LRRFIP1 / RFU, NDUFAF7 / Fold change vs veh, NDUFAF7 / RFU, SLC12A2 / Fold change vs veh, SLC12A2 / RFU, IBTK / Fold change vs veh, IBTK / RFU, ESF1 / Fold change vs veh, ESF1 / Fold change vs veh, TMEM50B / RFU, TAOK1 / Fold change vs veh, TAOK1 / RFU, ACBD3 / Fold change vs veh, ACBD3 / RFU, TMA16 / Fold change vs veh, TMA16 / RFU, RWDD3 / Fold change vs veh, RWDD3 / RFU, BCAT1 / Fold change vs veh, BCAT1 / RFU, EDEM3 / Fold change vs veh, EDEM3 / RFU, TMEM33 / Fold change vs veh, TMEM33 / RFU, WDR75 / Fold change vs veh, WDR75 / RFU, AHCTF1 / Fold change vs veh, AHCTF1 / RFU, TFRC / Fold change vs veh, TFRC / RFU, ZDHHC17 / Fold change vs veh, ZDHHC17 / RFU, NOM1 / Fold change vs veh, NOM1 / RFU, ARL8B / Fold change vs veh, ARL8B / RFU, ZBTB11 / Fold change vs veh, ZBTB11 / RFU, TAMM41 / Fold change vs veh, TAMM41 / RFU, KIAA1704 /// LOC100996395 / Fold change vs veh, KIAA1704 /// LOC100996395 / RFU, ING1 / Fold change vs veh, ING1 / RFU, TRMT61B / Fold change vs veh, TRMT61B / RFU, FUBP3 / Fold change vs veh, FUBP3 / RFU, TP53 / Fold change vs veh, TP53 / RFU, TNKS2 / Fold change vs veh, TNKS2 / RFU, ZFP14 / Fold change vs veh, ZFP14 / RFU, ACTR2 / Fold change vs veh, ACTR2 / RFU, PPP3R1 / Fold change vs veh, PPP3R1 / RFU, PIK3R1 / Fold change vs veh, PIK3R1 / RFU, HNRNPA1 / Fold change vs veh, HNRNPA1 / RFU, RNF170 / Fold change vs veh, RNF170 / RFU, ZNF28 / Fold change vs veh, ZNF28 / RFU, RNGTT / Fold change vs veh, RNGTT / RFU, OGT / Fold change vs veh, OGT / RFU, BRD1 / Fold change vs veh, BRD1 / RFU, MARS / Fold change vs veh, MARS / RFU, ZNF655 / Fold change vs veh, ZNF655 / RFU, FAHD1 / Fold change vs veh, FAHD1 / RFU, BDP1 / Fold change vs veh, BDP1 / RFU, LRRCC1 / Fold change vs veh, LRRCC1 / RFU, ARID1A / Fold change vs veh, ARID1A / RFU, ZNF146 / Fold change vs veh, ZNF146 / RFU, ZNF330 / Fold change vs veh, ZNF330 / RFU, GPN3 / Fold change vs veh, GPN3 / RFU, C9orf123 / Fold change vs veh, C9orf123 / RFU, N4BP2L2 / Fold change vs veh, N4BP2L2 / RFU, ARFIP1 / Fold change vs veh, ARFIP1 / RFU, FAM179B / Fold change vs veh, FAM179B / RFU, BCL10 / Fold change vs veh, BCL10 / RFU, UHRF1BP1L / Fold change vs veh, UHRF1BP1L / RFU, BET1 / Fold change vs veh, BET1 / RFU, CNOT2 / Fold change vs veh, CNOT2 / RFU, ZNF268 / Fold change vs veh, ZNF268 / Fold change vs veh, ZNF507 / RFU, DGCR2 / Fold change vs veh, DGCR2 / RFU, WDSUB1 / Fold change vs veh, WDSUB1 / Fold change vs veh, HSP90B1 /// MIR3652 / RFU, ADSS / Fold change vs veh, ADSS / RFU, GK / Fold change vs veh, GK / RFU, ZNF148 / Fold change vs veh, ZNF148 / RFU, TAF9 / Fold change vs veh, TAF9 / RFU, SLC1A5 / Fold change vs veh, SLC1A5 / RFU, SLMO2 / Fold change vs veh, SLMO2 / RFU, ABCC4 / Fold change vs veh, ABCC4 / RFU, LOC101060439 /// RAP1B / Fold change vs veh, LOC101060439 /// RAP1B / RFU, RFX7 / Fold change vs veh, RFX7 / RFU, GTPBP10 / Fold change vs veh, GTPBP10 / RFU, CNEP1R1 / Fold change vs veh, CNEP1R1 / RFU, BIVM-ERCC5 /// ERCC5 / Fold change vs veh, BIVM-ERCC5 /// ERCC5 / RFU, ILF3 / Fold change vs veh, ILF3 / RFU 11762660_at / Fold change /veh 11762660_at / RFU VCAN (11757783_s_at) / Fold change /veh VCAN (11757783_s_at) / RFU DDX43 (11728927_at) / Fold change /veh DDX43 (11728927_at) / RFU KRT8 (11758188_x_at) / Fold change /veh KRT8 (11758188_x_at) / RFU NKD1 (11759106_at) / Fold change /veh NKD1 (11759106_at) / RFU SRD5A1 (11742802_a_at) / Fold change /veh SRD5A1 (11742802_a_at) / RFU TPSAB1 /// TPSB2 (11721975_s_at) / Fold change /veh TPSAB1 /// TPSB2 (11721975_s_at) / RFU GSTM3 (11746129_a_at) / Fold change /veh GSTM3 (11746129_a_at) / RFU IL23R (11737362_x_at) / Fold change /veh IL23R (11737362_x_at) / RFU TMEM51 (11727254_a_at) / Fold change /veh TMEM51 (11727254_a_at) / RFU PIWIL2 (11732686_x_at) / Fold change /veh PIWIL2 (11732686_x_at) / RFU ORM1 (11744905_x_at) / Fold change /veh ORM1 (11744905_x_at) / RFU CCDC152 (11743942_at) / Fold change /veh CCDC152 (11743942_at) / RFU ECM1 (11717891_a_at) / Fold change /veh ECM1 (11717891_a_at) / RFU IL23R (11748794_a_at) / Fold change /veh IL23R (11748794_a_at) / RFU TNFAIP8L3 (11732012_x_at) / Fold change /veh TNFAIP8L3 (11732012_x_at) / RFU MBOAT4 (11741988_at) / Fold change /veh MBOAT4 (11741988_at) / RFU 11764193_at / Fold change /veh 11764193_at / RFU TMEM53 (11763286_at) / Fold change /veh TMEM53 (11763286_at) / RFU MAGEB2 (11727129_at) / Fold change /veh MAGEB2 (11727129_at) / RFU TMEM200A (11744735_a_at) / Fold change /veh TMEM200A (11744735_a_at) / RFU CCDC152 (11751479_a_at) / Fold change /veh CCDC152 (11751479_a_at) / RFU FAM211A (11726209_a_at) / Fold change /veh FAM211A (11726209_a_at) / RFU RGS16 (11746705_a_at) / Fold change /veh RGS16 (11746705_a_at) / RFU VCAN (11755009_s_at) / Fold change /veh VCAN (11755009_s_at) / RFU RHOB (11743442_s_at) / Fold change /veh RHOB (11743442_s_at) / RFU RGS16 (11720943_a_at) / Fold change /veh RGS16 (11720943_a_at) / RFU RGS16 (11720944_at) / Fold change /veh RGS16 (11720944_at) / RFU, VPS4B / Fold change vs veh, VPS4B / RFU, CREB1 / Fold change vs veh, CREB1 / RFU, DNAJC13 / Fold change vs veh, DNAJC13 / RFU, GNAQ / Fold change vs veh, GNAQ / RFU, CDK5R1 / Fold change vs veh, CDK5R1 / RFU, ZRANB3 / Fold change vs veh, ZRANB3 / RFU, CUL4A / Fold change vs veh, CUL4A / RFU, CCNY / Fold change vs veh, CCNY / RFU, UFL1 / Fold change vs veh, UFL1 / RFU, COG3 / Fold change vs veh, COG3 / RFU, DIAPH2 / Fold change vs veh, DIAPH2 / RFU, SKA2 / Fold change vs veh, SKA2 / RFU, AFF3 / Fold change vs veh, AFF3 / RFU, LMF1 / Fold change vs veh, LMF1 / RFU, IPO11 / Fold change vs veh, IPO11 / RFU, DFFB / Fold change vs veh, DFFB / RFU, FOXP1 / Fold change vs veh, FOXP1 / RFU, CARD8 / Fold change vs veh, CARD8 / RFU, STRN3 / Fold change vs veh, STRN3 / RFU, ADK / Fold change vs veh, ADK / RFU, RASSF2 / Fold change vs veh, RASSF2 / RFU, WIPF1 / Fold change vs veh, WIPF1 / RFU, LARP1B / Fold change vs veh, LARP1B / RFU, RASA1 / Fold change vs veh, RASA1 / RFU, RB1 / Fold change vs veh, RB1 / RFU, PPFIA1 / Fold change vs veh, PPFIA1 / RFU, MAT2A / Fold change vs veh, MAT2A / RFU, CCT5 / Fold change vs veh, CCT5 / RFU, WDR92 / Fold change vs veh, WDR92 / RFU, CUX1 / Fold change vs veh, CUX1 / RFU, TTC7A / Fold change vs veh, TTC7A / RFU, TMEM135 / Fold change vs veh, TMEM135 / RFU, DEPTOR / Fold change vs veh, DEPTOR / RFU, CPM / Fold change vs veh, CPM / RFU, DNAJB6 / Fold change vs veh, DNAJB6 / RFU, CACNA2D3 / Fold change vs veh, CACNA2D3 / RFU, DTX4 / Fold change vs veh, DTX4 / RFU, TFCP2 / Fold change vs veh, TFCP2 / RFU, GMCL1 /// GMCL1P1 / Fold change vs veh, GMCL1 /// GMCL1P1 / RFU, AEBP2 / Fold change vs veh, AEBP2 / RFU, SNHG1 /// SNORD22 /// SNORD25 /// SNORD26 /// SNORD27 /// SNORD28 /// SNORD29 /// SNORD31 / Fold change vs veh, SNHG1 /// SNORD22 /// SNORD25 /// SNORD26 /// SNORD27 /// SNORD28 /// SNORD29 /// SNORD31 / Fold change (Aza/veh), C12orf56 (ProbeSet 11735607_a_at) / Fold change (ACY-1035/veh), C12orf56 (ProbeSet 11735607_a_at) / Fold change (Aza/veh), FGFR1OP (ProbeSet 11751329_s_at) / Fold change (ACY-1035/veh), FGFR1OP (ProbeSet 11751329_s_at) / Fold change (Aza/veh), VPS36 (ProbeSet 11739960_a_at) / Fold change (ACY-1035/veh), VPS36 (ProbeSet 11739960_a_at) / RFU SYPL1 (11715823_x_at) / Fold change /veh SYPL1 (11715823_x_at) / RFU IGFBP7 (11715501_s_at) / Fold change /veh IGFBP7 (11715501_s_at) / RFU REEP3 (11722064_at) / Fold change /veh REEP3 (11722064_at) / RFU IGLL1 (11728026_x_at) / Fold change /veh IGLL1 (11728026_x_at): dose or concentration left out as unconfirmed.

On to `Nc1ccc(-c2cccs2)cc1NC(=O)c1ccc2c(c1)cc(C1CC1)n2CCN1CCOCC1` [ACY-1035], for which the “Fold change vs veh, EDEM3” value amounted to 0.94.

The values are drawn from paper PMC5218480 (PLoS ONE, 2017).
